In patent US5444055A, “17-hydroxyiminomethyl-5-β, 14 β-androstane derivatives active on the cardiovascular system, processes for their preparation and pharmaceutical compositions containing same” (Sigma-Tau Industrie Farmaceutiche Riunite S.p.A., priority 1992, dated 1995):

What was measured:
[1] = target: T1, Na^+,K^+ -ATPase (Homo sapiens, UniProt P05023); assay: inhibition of the activity of purified Na^+,K^+ -ATPase (hydrolysis of ^32 P-ATP); assay type: biochemical
[2] = target: T1, Na^+,K^+ -ATPase; assay: displacement of specific ^3 H-ouabain binding from purified Na^+,K^+ -ATPase receptor
[3] = prevention of development of hypertension, 5-week oral treatment, tail cuff SBP and HR; assay type: in vivo; conditions: 5 week-treatment, 20 mg/Kg/os daily in Methocel 0.5% w/v, 7 rats (MHS); for SBP: controls 173 +/- 4.5; for HR: controls 382 +/- 8.3
[4] = system: Na^+,K^+ -ATPase; conditions: literature report; cited from earlier work
[5] = literature report; cited from earlier work
[6] = purified Na^+,K^+ -ATPase, ^32 P-ATP hydrolysis, read-out: Inhibitory Activity -log IC50 (converted)
[7] = read-out: Binding ^3 H-Ouab. Displacement -log IC50 (converted)

Structure (SMILES) | IC50 [1, 6] | IC50 [2, 7] | IC50 [1] | other results
CN(C)CCO/N=C/[C@H]1CC[C@]2(O)[C@@H]3CC[C@@H]4CC(=NNC(=N)N)CC[C@]4(C)[C@H]3CC[C@]12C (mixture of isomers) [Comp. I-aw, 3-((EZ)-Guanidinoimino)-17β-((E)-2-dimethylaminoethoxyiminomethyl)-5β-androstane-14β-ol] | 1260 nM | 79.4 nM | – | –
CN(C)CCO/N=C/[C@H]1CC[C@]2(O)[C@@H]3CC[C@@H]4C[C@@H](OCCCN)CC[C@]4(C)[C@H]3CC[C@]12C [Comp. I-as, (E)-3β-(3-Aminopropoxy)-17β-(2-dimethylaminoethoxyimino)methyl-5β-androstane-14β-ol] | 316 nM | 39.8 nM | – | SBP [3]: 149 +/- 7.9 mm Hg; HR [3]: 377 +/- 9.5 beats/min.
C[C@]12CC[C@H](O)C[C@H]1CC[C@@H]1[C@@H]2CC[C@]2(C)[C@@H](/C=N/OCCNC(=N)N)CC[C@]12O [Comp. I-ag, (E)-17β-(2-Guanidinoethoxyimino)methyl-5β-androstane-3β,14β-diol] | – | 158 nM | 3160 nM | –
CN(C)CCO/N=C/[C@@]1(O)CC[C@]2(O)[C@@H]3CC[C@@H]4C[C@@H](O)CC[C@]4(C)[C@H]3CC[C@]12C [Comp. I-ak, (E)-17β-(2-Dimethylaminoethoxyimino)methyl-5β-androstane-3β,14β,17α-triol] | 39800 nM | 1000 nM | – | –
CN(C)CCON=C1CC[C@@]2(C)[C@H](CC[C@@H]3[C@@H]2CC[C@]2(C)[C@@H](/C=N/OCCN(C)C)CC[C@]32O)C1 (mixture of isomers) [Comp. I-az] | 2000 nM | 126 nM | – | –
C[C@]12CC[C@H](O)C[C@H]1CC[C@@H]1[C@@H]2CC[C@]2(C)[C@@H](C=NO)CC[C@]12O [17β-hydroxyiminomethyl-5β-androstane-3b,14b-diol] | – | – | – | inhibition of Na^+,K^+-ATPase [4]: not to inhibit Na^+,K^+ -ATPase
C[C@]12CC[C@H](O)C[C@H]1CC[C@@H]1[C@@H]2CC[C@]2(C)[C@@H](/C=N/OCCN)CC[C@]12O [Comp. I-ab, (E)-17β-(2-Aminoethoxyimino)methyl-5β-androstane-3β-diol] | 1580 nM | 79.4 nM | – | –
CN(C)CCCO/N=C/[C@H]1CC[C@]2(O)[C@@H]3CC[C@@H]4C[C@@H](O)CC[C@]4(C)[C@H]3CC[C@]12C [Comp. I-af, (E)-17β-(3-Dimethylaminopropoxyimino)methyl-5.β-androstane-3β,14β-diol] | – | 158 nM | 2510 nM | –
CO/N=C/[C@H]1CC[C@]2(O)[C@@H]3CC[C@@H]4C[C@@H](OCCCN)CC[C@]4(C)[C@H]3CC[C@]12C [Comp. I-aq, (E)-3β-(3-Aminopropoxy)-17β-methoxyiminomethyl-5β-androstane-14β-ol] | – | 631 nM | 15800 nM | –
CN(C)CCO/N=C/[C@H]1CC[C@]2(O)[C@@H]3CC[C@@H]4C[C@@H](O)CC[C@]4(C)[C@H]3CC[C@]12C [Comp. I-ad, (E)-17β-(2-Dimethylaminoethoxyimino)methyl-5β-androstane-3β,14 β-diol] | – | 39.8 nM | 1260 nM | SBP [3]: 148 +/- 4.0 mm Hg; HR [3]: 375 +/- 10.5 beats/min.
C[C@]12CC[C@H](O)C[C@H]1CC[C@@H]1[C@@H]2CC[C@]2(C)[C@@H](C=NNC(=N)N)CC[C@]12O [17β-guanidinoiminomethyl-5β-androstane-3β,14β-diol] | – | – | – | inhibition of Na^+,K^+-ATPase [4]: weak inhibitors of Na^+,K^+ -ATPase; positive inotropic activity [5]: weak positive inotropic agents
CN(C)CCO/N=C/[C@H]1CC[C@]2(O)[C@@H]3CC[C@@H]4C[C@@H](OCCN5CCCC5)CC[C@]4(C)[C@H]3CC[C@]12C [Comp. I-au, (E)-3β-(2-(1-Pyrrolidinyl)ethoxy)-17β-(2-dimethylaminoethoxyimino)methyl-5β-androstane-3β,14β-diol] | 398 nM | – | – | IC50 [2]: 50.1 nM
CO/N=C/[C@H]1CC[C@]2(O)[C@@H]3CC[C@@H]4C[C@@H](OCCN5CCCC5)CC[C@]4(C)[C@H]3CC[C@]12C [Comp. I-ar] | 15800 nM | 794 nM | – | SBP [3]: 158 +/- 4.0 mm Hg; HR [3]: 385 +/- 6.4 beats/min.
C[C@]12CC[C@H](O)C[C@H]1CC[C@@H]1[C@@H]2CC[C@]2(C)C(=NNC(=N)N)CC[C@]12O [17-guanidinoimino-5β-androstane-3β,14β-diol] | – | – | – | inhibition of Na^+,K^+-ATPase [4]: weak inhibitors of Na^+,K^+ -ATPase; positive inotropic activity [5]: weak positive inotropic agents
C/C(=N\OCCN(C)C)[C@H]1CC[C@]2(O)[C@@H]3CC[C@@H]4C[C@@H](O)CC[C@]4(C)[C@H]3CC[C@]12C [Comp. I-ai, (E)-20-(2-Dimethylaminoethoxyimino)-5β-pregnane-3β,14β-diol] | 2000 nM | 79.4 nM | – | –
CO/N=C/[C@H]1CC[C@]2(O)[C@@H]3CC[C@@H]4C[C@@H](O)CC[C@]4(C)[C@H]3CC[C@]12C [Comp. I-aa, (E)-17β-Methoxyiminomethyl-5β-androstane-3β,14β-diol] | – | 3980 nM | 31600 nM | –
